Source: patent US7713477B2, “Systems and methods for monitoring chemical and biological activities using differential measurements” (priority 2002, dated 2010)

B1: IL4: interleukin tested on TF-1 cells (protein, UniProt P05112 25-153, looked up)
Interleukin-4: HKCDITLQEIIKTLNSLTEQKTLCTELTVTDIFAASKNTTEKETFCRAATVLRQFYSHHEKDTRCLGATAQQFHRHKQLIRFLKRLDRNLWGLAGLNSCPVKEANQSTLENFLERLKTIMREKYSKCSS

What was measured:
TF-1 cells [1] = conditions: stated as known, background knowledge; cited from earlier work
TF-1 cells [2] = assay: Differential response of TF-1 cells stimulated vs un-stimulated, monitoring system of FIG. 8 (FIG. 9A); format: cell-based
Description: In this set of experiments, the monitoring system as shown in FIG. 8 was used to directly compare the activity of a known modification of the extra-cellular environment to controls. In the monitoring system of FIG. 8, two sample chambers (formed a fluid channels) 800a and 800b, along with four ports 801a-d, were fabricated using micromachining techniques on an acrylic substrate. The dimensions of the channels were approximately 250 micrometers wide, 100 micrometers deep, and with a total length of approximately 1.5 centimeters. The substrate was fastened in a water-tight manner, using thin film epoxy, to a pre-fabricated printed circuit board (not explicitly shown), on which eight gold-plated copper conductive traces 820a-d and 830a-d of width approximately 250 micrometers were deposited. Using the monitoring system architecture shown in FIG. 3D, in which the phase meter 223 was not present and DC-converters 224 and 225 comprised a device which converts and AC signal into a DC signal, whose amplitude is roughly the root-mean-square (RMS) of the AC amplitude. […]

TF-1 cells [3] = assay: Differential response of TF-1 cells against stimuli and controls at one, two and five minutes (FIG. 9B); format: cell-based; conditions: two and five minutes after stimulation, factor 100:1 dilution in d-PBS, 25 microliter into approximately 200 microliters cell suspension
Description: FIG. 9B illustrates a second set of experiments, in which the differential responses of a population of TF-1 cells against numerous stimuli and controls are shown at one minute, two minutes, and five minutes after stimulation. In these experiments, a population of TF-1 cells was fractionated into two portions of equal volume and cell density immediately before the experiment. One of the two fractions received a potential stimulus, and the other a control in the form of a quantity of pure Dulbecco's phosphate buffered saline (d-PBS)equal to the quantity of d-PBS which contained the stimulant. […] Next, a series of factors and interleukins was compared against a reference sample. Each factor was introduced into one of two fractionated volumes containing TF-1 cells, via a 100:1 dilution of factor to d-PBS, followed by a 25 microliter addition of the diluted factor into approximately 200 microliters of the cell suspension. At the same time, the reference population of cells was prepared by adding 25 microliters of d-PBS alone into the second of the two cell fractions. Both fractions were then inserted into their respective channels in the apparatus, wherein said reference population was always inserted in the same channel, and measurements of the differential voltage were taken at pre-defined intervals over a five minute period. After each experiment, both channels were flushed with ˜2 ml of cell-free culture media, to insure that all previous cellular material and any other potential compounds from a given experiment were removed from the channel before the subsequent experiment.

concanavalin-A = concanavalin-A (Canavalia ensiformis, UniProt P02866); assay: Binding of dextran in solution to concanavalin-A immobilized on the measurement probes (FIG. 6); conditions: phosphate buffered saline with calcium and magnesium, physiologic pH and osmolarity; regions 600b and 600c of FIG. 6
Description: A common AC voltage of approximately 40 millivolts and at a frequency of approximately 1 KHz is placed upon measurement probes 313 and 323. The circuit continues across the interface of measurement probes 313 and 323, through the conductive solution in sample chambers 310 and 320, and completed via attachment of signal grounds 314 and 324.
The voltage difference between measurement probes 313 and 317 is placed across the antipodal inputs of the first differential amplifier 221; similarly, the voltage across measurement probes 323 and 327 is placed across antipodal inputs of the second differential amplifier 222. The amplified differential voltages produced by 221 and 222 are fed into DC-converters 224 and 225 (e.g., root-mean-square averaging devices. The outputs 221a and 222a, being now of a DC nature, are input into antipodal inputs of the third differential amplifier 226, the resulting difference signal 227 being measured by a simple voltmeter 400, said voltmeter referenced to the common ground. This voltage is directly proportional to the difference in the voltage drops across the two pairs of measurement probes 313 and 317, and 323 and 327.
FIG. 6 illustrates the result of a second experiment using the monitoring system of FIG. 3B. […]

| Molecule | known activity against TF-1 cells (TF-1 cells [1]) | differential response over the three controls (TF-1 cells [3]) | other results |
| --- | --- | --- | --- |
| bovine serum albumin [BSA, reference compound] | known not to affect TF-1 cells |  |  |
| granulocyte-macrophage colony stimulating factor [GM-CSF] | induces cell proliferation in TF-1 cells | significantly larger differential response over the three controls | time at which change in differential response begins (TF-1 cells [2]; AC approximately 10 KHz, thirty minute experiment, change continues nearly monotonic): around eight; differential response of stimulated cells over the control (TF-1 cells [2]; AC frequency approximately 10 KHz, about 2 million cells per milliliter, GM-CSF in quantity to elicit maximum response, followed thirty minutes): show a change in the differential response over the control |
| IL5: interleukin tested on TF-1 cells |  | significantly larger differential response over the three controls |  |
| dextran |  |  | binding of dextran to immobilized concanavalin-A, shown as new voltage level (concanavalin-A): bound specifically to the immobilized concanavalin-A molecules |
| B1 |  | significantly larger differential response over the three controls |  |
